Data from US7935673B2, “Polyphenol glycoside isolated from acerola” (Nichirei Biosciences, Inc., priority 2004, dated 2011).
pIC50: −log10 of the molar value.

Columns and labels:
[1] = test system: α-glucosidase (yeast-derived reagent); assay: α-Glucosidase inhibitory activity (maltose substrate); type: biochemical; settings: for pIC50: yeast-derived α-glucosidase, maltose substrate, 37° C., 60 minutes, read-out: 50% α-glucosidase inhibition concentration
Procedure: A yeast-derived reagent (Wako Pure Chemical) was used as an α-glucosidase. The reagent was dissolved in 10 mM phosphate buffer (pH 7.0) containing 0.2% bovine serum albumin.
In the experiment, 0.25 mL of 100 mM phosphate buffer, 0.25 mL of each sample solution at a different concentration, and 0.125 mL of a maltose aqueous solution serving as a substrate at a concentration of 10 mg/mL were mixed, followed by heating at 37° C. for 5 minutes. Then, 0.125 mL of an α-glucosidase solution was added thereto, followed by enzyme treatment at 37° C. for 60 minutes. As a reaction termination solution, 0.5 mL of a 0.2 M sodium carbonate solution was added to each resultant, followed by mixing. The glucose concentration of each reaction solution was measured using Glucose CII-Test Wako (Wako Pure Chemical). An inhibition rate (%) was calculated based on a proportion of the glucose concentration of a solution to which a sample had been added to the glucose concentration of a blank solution to which no sample had been added. Then, the concentration of each sample at which 50% enzyme activity was inhibited was calculated based on such inhibition rate derived from the concentration of the sample, followed by comparison.

[2] = Antioxidative activity measurement by DPPH radical scavenging; type: biochemical; settings: for DPPH radical 50% scavenging concentration: 30° C., 30 minutes, absorbance at 517 nm; for radical scavenging activity compared with α-tocopherol: DPPH reagent, result in words
Procedure: Antioxidative activity was evaluated with the use of a stable-radical diphenyl-p-picrylhydradil (DPPH)/ethanol solution. 400 μl of a sample/methanol solution was mixed with 1600 μl of 250 mM acetate buffer (pH=5.5) and 1200 μl of ethanol, at a different concentration, followed by preincubation at 30° C. for 5 minutes. Then, 800 μl of a 500 μM DPPH/ethanol solution was added to each resulting solution, followed by mixing. Each resultant was allowed to stand at 30° C. for 30 minutes, followed by measurement of absorbance at 517 nm. α-tocopherol was also subjected to the same operation. The obtained solution was thus designated as a positive control. A blank solution used was prepared by the same operation with the use of methanol instead of a sample solution. Based on absorbances measured, radical scavenging rates were calculated based on the following equation. Scavenging rate(%)=(1−[Absorbance of a sample]/[Absorbance of a blank])×100 [Equation 1]
The concentration of a sample solution was changed stepwise for the measurement of the aforementioned scavenging rate. As a result, the concentration of a sample solution at which the DPPH radical scavenging rate was 50% was obtained so as to be designated as the DPPH radical 50% scavenging concentration. The lower such value, the higher the radical scavenging capacity.

[3] = result in words; cited from earlier work

With `OCC1OC2O[C@@H]3[C@@H](c4ccc(O)c(O)c4)Oc4cc(O)cc(O)c4[C@@H]3OC2C(O)C1O` (stereo in doubt) [Product of the present invention] the “glucosidase inhibitory activity compared with isoquercitrin” value ([1]; result in words) was “several times stronger than that of isoquercitrin”, the “glucosidase inhibitory activity compared with taxifolin” value ([1]; result in words) was “several times stronger” and the “glucosidase inhibitory activity compared with taxifolin” value ([1]; result in words, listed as polyphenol glycoside of the present invention) was “several times stronger than that of taxifolin”. The pIC50 [1] was 3.79, the “DPPH radical 50% scavenging concentration” value [2] was 0.080 mg/mL and the “radical scavenging activity compared with α-tocopherol” value [2] was “comparable to or exceeding that of α-tocopherol”. For the same compound, the “radical scavenging activity compared with α-tocopherol” value ([2]; listed as novel polyphenol glycoside of the present invention) was “almost comparable to that of α-tocopherol”.

`O=c1c(OC2OC(CO)C(O)C(O)C2O)c(-c2ccc(O)c(O)c2)oc2cc(O)cc(O)c12` (centres unmarked) [Isoquercitrin, quercetin-3-glucoside, reference compound] gave a pIC50 [1] of 3.14.

Work on `O=C1c2c(O)cc(O)cc2O[C@H](c2ccc(O)c(O)c2)[C@H]1O` [Taxifolin, taxifolin, reference compound] yielded a pIC50 [1] of 3.05.

In the case of `Cc1c(C)c2c(c(C)c1O)CC[C@@](C)(CCC[C@H](C)CCC[C@H](C)CCCC(C)C)O2` [α-tocopherol, reference compound], the “DPPH radical 50% scavenging concentration” value [2] is listed as 0.127 mg/mL and the solubility in water [3] is listed as “insoluble in water”.
